Experimental data reported in PubChem BioAssay (NCI).
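Five concentrations, 48 hours, 96-well plates. At the TGI there is no net growth.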

How the values were obtained:
Test in all cases: DTP human tumour cell line panel, 48 h
HCT-116 colon = system: HCT-116 colon
HOP-62 NSCLC = system: HOP-62 NSCLC
U251 CNS = system: U251 CNS
CAKI-1 renal = system: CAKI-1 renal
T-47D breast = system: T-47D breast
HCT-15 colon = system: HCT-15 colon
UACC-62 melanoma = system: UACC-62 melanoma
SF-295 CNS = system: SF-295 CNS
LOX IMVI melanoma = system: LOX IMVI melanoma
NCI-H226 lung = system: NCI-H226 lung
MCF7 breast = system: MCF7 breast

| Compound | TGI (HCT-116 colon) | TGI (HOP-62 NSCLC) | TGI (U251 CNS) | TGI (CAKI-1 renal) | TGI (T-47D breast) | TGI (HCT-15 colon) | TGI (UACC-62 melanoma) | TGI (SF-295 CNS) | TGI (LOX IMVI melanoma) | TGI (NCI-H226 lung) | TGI (MCF7 breast) |
| --- | --- | --- | --- | --- | --- | --- | --- | --- | --- | --- | --- |
| Cc1ccc(S(=O)(=O)N2CCN(CCN(C)CCN3CCN(S(=O)(=O)c4ccc(C)cc4)CC3)CC2)cc1 | 35 µM | 33 µM | 31.6 µM | 40.5 µM | 48 µM | 31.9 µM | 32.8 µM | 31.9 µM | 33 µM | 79.7 µM | 32.8 µM |
| COC1/C=C/C(C)C(C(C)C(OC)C(C)CCC(=O)C(C)C(CCC(=O)O)OC)OC(=O)/C=C/C=C(\C)CC(OC)CC2=CC(=O)O[C@@H](C(C)C(OC)CC(OC)/C=C/C(C)C(OC)C1)[C@H]2O (some centres undefined) | > 5 µM | > 5 µM | 1.39 µM | 0.934 µM | > 5 µM | > 5 µM | > 4.31 µM | > 5 µM | > 3.67 µM | 2.13 µM | > 5 µM |
| N#CCCN(CCCN(C(=O)Nc1ccccc1)c1ccccc1)C(=O)Nc1ccccc1 | > 100 µM | > 100 µM | > 100 µM | 28.6 µM | > 100 µM | > 100 µM | > 100 µM | > 100 µM | > 100 µM | > 100 µM | > 100 µM |
| COc1ccc2c(c1)CCc1c-2n(CCN(C)C)c2ccc(OC)cc12 | > 100 µM | 43.1 µM | 78.7 µM | > 100 µM | 85.4 µM | > 100 µM | > 100 µM | > 100 µM | > 100 µM | 10.6 µM | 69.9 µM |
| Cc1ccc(O)c(C2=NNC(c3cccc(Br)c3)C2)c1 (centres undefined) | > 100 µM | > 100 µM | > 100 µM | > 100 µM | > 100 µM | 35.1 µM | > 100 µM | > 100 µM | > 100 µM | > 100 µM | > 100 µM |
| O=C(O)c1ccccc1/C=N\NC1=NCCCCN1 | > 100 µM | > 100 µM | > 100 µM | > 100 µM | > 100 µM | > 100 µM | > 100 µM | > 100 µM | > 100 µM | > 100 µM | > 100 µM |
| O=C(/C=C/c1ccc([N+](=O)[O-])cc1)c1nc2ccccc2[nH]1 | > 38.7 µM | > 100 µM | > 100 µM | > 100 µM | > 84.8 µM | > 100 µM | 63 µM | > 100 µM | > 100 µM | 4.39 µM | > 100 µM |
| Cc1ccc2c(c1)OC1Nc3ccccc3C1=C2O (centres undefined) | 65.1 µM | > 100 µM | 57.5 µM | 97.5 µM | 85 µM | > 100 µM | 48 µM | 60 µM | 71.5 µM | 89.1 µM | 45.9 µM |
| Cc1cc(S(=O)(=O)Nc2nnc3cc(C(F)(F)F)cc(C)n23)c(S)cc1Cl | > 100 µM | > 100 µM | > 81.5 µM | > 100 µM | > 100 µM | > 100 µM | > 100 µM | > 100 µM | > 100 µM | > 96.5 µM | > 31.6 µM |
| Cc1[nH]c(-c2ccccc2)c(-c2ccc(Cl)cc2)c1C(=O)ONC(=O)c1ccccc1 | 5.24 µM | 5.45 µM | 3.6 µM | 6.88 µM | 18.1 µM | 21.6 µM | 23.3 µM | 4.74 µM | 2.87 µM | 11.6 µM | 28 µM |
| CCOC(=O)c1sc2c(c1OC(=O)c1ccccc1)c(=O)n(-c1ccccc1)c(=S)n2-c1ccccc1 | 74.8 µM | 54.4 µM | 46.5 µM | > 100 µM | > 100 µM | > 100 µM | 52.3 µM | > 100 µM | > 100 µM | > 100 µM | > 100 µM |
| O=C(Nc1cccc(-c2cn3ccccc3n2)c1)c1ccncc1 | > 100 µM | > 100 µM | > 100 µM | > 100 µM | 79.6 µM | > 100 µM | 42.2 µM | > 100 µM | > 100 µM | > 100 µM | > 100 µM |
| CSCCC(NC(=O)OC(C)(C)C)C(=O)NCCNc1ccc(NCCNC(=O)C(CCSC)NC(=O)OC(C)(C)C)c2c1C(=O)c1ccccc1C2=O (centres undefined) | > 29.6 µM | 8.2 µM | 10.6 µM | > 41.5 µM | 12.1 µM | > 100 µM | 14.4 µM | 21.1 µM | 22.8 µM | 19.7 µM | 19.2 µM |
| CCCCN(c1ccccc1)c1ncnc2c1cnn2C | > 100 µM | > 100 µM | > 100 µM | > 100 µM | 99.1 µM | > 100 µM | > 100 µM | > 100 µM | > 100 µM | > 100 µM | > 100 µM |
